Experimental findings from US9115083B2 (Simpson Biotech Co., Ltd, priority 2011, dated 2015) are described below.

pIC50: −log10 of the molar value. “And” between values parts separate entries of the source, which are not always exact repeats. Equal entries are not always repeated. Where two headings read alike, the source gives them in different places.

In one test the target is HCV NS3/4A protease (Hepatitis C virus genotype 1a (isolate H77) (HCV), UniProt P27958). Nature of the test: HCV protease assay (fluorimetric, FRET substrate). The test is classed as biochemical. From the text: The HCV protease assay herein was applied to investigate the HCV-protease inhibitory activity of the prepared compounds as described above. The method of the HCV protease assay was described in D. T. Phuong, C. M. Ma, M. Hattori and J. S. Jin: Inhibitory Effects of Antrodins A-E from Antrodia cinnamomea and Their Metabolites on Hepatitis C Virus Protease. Phytotherapy Research, 23, 582-584, 2009. Two micro liters of a compound solution (using DMSO as solvent) was placed in 384 well micro plate, then 8 μl of HCV NS3/4A protease ([…]) was added to the well containing a sample and the plate was agitated. Finally, 10 μL of freshly prepared substrate (Ac-Asp-Glu-Dap(QXL™520)-Glu-Glu-Abu-COO-Ala-Ser-Cys(5-FAMsp)-NH2) (100× dilution of a DMSO stock solution) was added with sequential rotational shaking. The reaction mixture was incubated for 30 min at 37° C. The fluorimetric analyses were performed on an automated TECAN GENios plate reader with excitation wavelength at 485 nm and emission 530 nm. Each test compound was carried out in triplicate. The HCV—PR inhibition (%) was calculated by using the following equation: % inhibition=(Fvehicle control−[…])×100/Fvehicle control (Where F is the fluorescence value of vehicle control or of sample minus the fluorescence of the substrate control).

Test [1] concerns the target dipeptidyl peptidase-IV (DPPIV) (Homo sapiens (Human), UniProt P27487). Nature of the test: dipeptidyl peptidase-IV (DPPIV) assay. The test is classed as biochemical. The following applies: for IC50: read-out: IC50 against DPPIV (converted). An excerpt: In addition, the dipeptidyl peptidase-IV (DPPIV) assay herein was applied to investigate the DPPIV inhibitory activity of the prepared compounds as described above. The method of the DPPIV assay was described in Lin et al., 1998. Inhibition of dipeptidyl peptidase IV by fluoroolefin-containing N-peptidyl-O-hydroxylamine peptidomimetics. Proc. Natl. Acad. Sci. USA Vol. 95, pp. 14020-14024.

The mark [2] stands for this setting: HCV NS3/4A protease, 30 min at 37° C., triplicate, read-out: IC50 against HCV protease.

Sequence of dipeptidyl peptidase-IV (DPPIV) (P27487 whole entry, species assumed): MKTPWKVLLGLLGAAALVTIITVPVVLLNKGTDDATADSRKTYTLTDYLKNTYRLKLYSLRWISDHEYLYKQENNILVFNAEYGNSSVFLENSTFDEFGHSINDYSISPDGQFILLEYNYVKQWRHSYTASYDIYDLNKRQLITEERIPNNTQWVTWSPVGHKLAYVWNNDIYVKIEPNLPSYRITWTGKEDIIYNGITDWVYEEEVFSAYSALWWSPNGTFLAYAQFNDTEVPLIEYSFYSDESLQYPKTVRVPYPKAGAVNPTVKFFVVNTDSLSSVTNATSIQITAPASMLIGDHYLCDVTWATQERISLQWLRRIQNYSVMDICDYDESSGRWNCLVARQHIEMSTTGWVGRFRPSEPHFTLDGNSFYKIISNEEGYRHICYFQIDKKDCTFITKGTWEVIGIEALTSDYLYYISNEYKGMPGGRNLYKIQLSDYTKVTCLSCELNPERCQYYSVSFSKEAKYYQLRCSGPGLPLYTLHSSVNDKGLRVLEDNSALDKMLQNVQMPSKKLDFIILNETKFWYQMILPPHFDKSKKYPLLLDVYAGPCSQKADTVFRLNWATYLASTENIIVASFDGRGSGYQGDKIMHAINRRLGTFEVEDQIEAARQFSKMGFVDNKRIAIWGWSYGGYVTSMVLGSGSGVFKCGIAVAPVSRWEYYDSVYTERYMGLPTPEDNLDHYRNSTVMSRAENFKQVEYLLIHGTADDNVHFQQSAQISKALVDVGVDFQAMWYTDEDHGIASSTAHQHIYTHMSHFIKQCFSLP
Sequence of HCV NS3/4A protease (P27958 1027-1657): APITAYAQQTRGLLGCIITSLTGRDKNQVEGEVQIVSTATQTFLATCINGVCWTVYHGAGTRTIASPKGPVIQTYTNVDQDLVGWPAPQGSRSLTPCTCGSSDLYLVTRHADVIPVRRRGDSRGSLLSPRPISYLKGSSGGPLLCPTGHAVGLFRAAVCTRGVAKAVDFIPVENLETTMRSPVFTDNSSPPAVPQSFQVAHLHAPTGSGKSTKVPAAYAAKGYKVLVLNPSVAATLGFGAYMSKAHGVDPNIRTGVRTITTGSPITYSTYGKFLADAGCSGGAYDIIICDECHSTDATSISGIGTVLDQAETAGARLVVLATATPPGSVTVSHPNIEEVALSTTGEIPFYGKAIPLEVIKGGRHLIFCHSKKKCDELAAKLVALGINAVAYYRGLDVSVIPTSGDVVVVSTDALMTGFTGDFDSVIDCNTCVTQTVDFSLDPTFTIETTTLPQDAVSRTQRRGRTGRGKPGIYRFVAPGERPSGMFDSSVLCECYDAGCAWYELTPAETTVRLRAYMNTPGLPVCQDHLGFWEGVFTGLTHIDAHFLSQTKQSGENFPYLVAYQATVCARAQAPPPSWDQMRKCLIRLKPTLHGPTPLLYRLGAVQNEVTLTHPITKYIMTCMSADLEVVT
Sequence of HCV NS3/4A protease (P27958 1658-1711 partner): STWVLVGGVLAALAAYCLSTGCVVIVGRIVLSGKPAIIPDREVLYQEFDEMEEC

A word on the pIC50: it is the IC50 on a negative log10 scale, so that one unit is a factor of ten. In general, IC50 refers to the concentration at which inhibition is half-maximal. Take `CC(C)=CCOc1ccc(C2=C(CC(C)C)C(=O)N(C(CC(C)C)C(=O)O)C2=O)cc1` (stereo not shown) [Compound A1, 2-(3-Isobutyl-4-(4-(3-methylbut-2-enyloxy)phenyl)-2,5-dioxo-2,5-dihydro-1H-pyrrol-1-yl)-4-methylpentanoic acid]: the pIC50 against HCV NS3/4A protease is 5.07. Moreover, the half-maximal inhibitory concentration (IC50) in test [1] (Table 10, first scaffold) was 105 µM.

As for `COC(=O)[C@@H]1CCCN1C(=O)C(CC(C)C)N1C(=O)C(CC(C)C)=C(c2ccc(OCC=C(C)C)cc2)C1=O` (stereo partly shown) [Compound A1-5], in test [1] (IC50 against DPPIV, Table 10, first scaffold), the pIC50 is < 3.73 and 4.19.

For `CC(C)CC1C(=O)N(C(CC(C)C)C(=O)N2CCC[C@H]2C(=O)O)C(=O)C1c1ccc(O)cc1` (stereo partly shown) [Compound A1-9], in test [1] (Table 10, second scaffold), the IC50 is 29 µM.

Consider `CC(C)CC1C(=O)N(C(CC(C)C)C(=O)O)C(=O)C1c1ccc(O)cc1` (stereo not shown) [Compound A1-t], for which the IC50 in test [1] (Table 10, second scaffold) is 75 µM.

The compound `CC(C)=CCOc1ccc(C2=C(CC(C)C)C(=O)N(C(Cc3ccccc3)C(=O)O)C2=O)cc1` (stereo not shown) [Compound A2, 2-(3-Isobutyl-4-(4-(3-methylbut-2-enyloxy)phenyl)-2,5-dioxo-2,5-dihydro-1H-pyrrol-1-yl)-3-phenylpropanoic acid] showed a negative logarithm of the IC50 (pIC50) against HCV NS3/4A protease of 4.85. Besides, in test [1] (Table 10, first scaffold), the IC50 is 75.8 µM.

Take `CC(C)CC1C(=O)N(C(Cc2ccccc2)C(=O)N2CCC[C@H]2C(=O)O)C(=O)C1c1ccc(O)cc1` (stereo partly shown) [Compound A2-14]: the IC50 in test [1] (Table 10, second scaffold) is 60 µM.

Consider `CC(C)CC1C(=O)N(C(Cc2ccccc2)C(=O)O)C(=O)C1c1ccc(O)cc1` (stereo not shown) [Compound A2-t], for which the half-maximal inhibitory concentration (IC50) in test [1] (Table 10, second scaffold) is 90 µM.

With `CC(C)=CCOc1ccc(C2=C(CC(C)C)C(=O)N(C(CO)C(=O)O)C2=O)cc1` (stereo not shown) [Compound A3, 3-Hydroxy-2-(3-isobutyl-4-(4-(3-methylbut-2-enyloxy)phenyl)-2,5-dioxo-2,5-dihydro-1H-pyrrol-1-yl)propanoic acid], the pIC50 at HCV NS3/4A protease is 4.57. Besides, the IC50 in test [1] (Table 10, first scaffold) is 99.6 µM.

As for `CC(C)CC1C(=O)N(C(CO)C(=O)N2CCC[C@H]2C(=O)O)C(=O)C1c1ccc(O)cc1` (stereo partly shown) [Compound A3-15], the IC50 in test [1] (Table 10, second scaffold) was 85 µM.

Regarding `CC(C)CC1C(=O)N(C(CO)C(=O)O)C(=O)C1c1ccc(O)cc1` (stereo not shown) [Compound A3-t], the IC50 in test [1] (Table 10, second scaffold) is 70 µM.

As for `CCOC(=O)[C@H](Cc1ccccc1)NC(=O)C(=O)C(c1ccccc1)N1C(=O)C(CC(C)C)=C(c2ccc(OCC=C(C)C)cc2)C1=O` (stereo partly shown) [KC-1, Ethyl 2-(3-(3-isobutyl-4-(4-(3-methylbut-2-enyloxy)phenyl)-2,5-dioxo-2,5-dihydro-1H-pyrrol-1-yl)-2-oxo-3-phenylpropanamido)-3-phenylpropanoate], the negative logarithm of the IC50 (pIC50) on HCV NS3/4A protease (setting [2]) was less than 4.00.

For the compound `CCOC(=O)[C@H](C)NC(=O)C(=O)C(c1ccccc1)N1C(=O)C(CC(C)C)=C(c2ccc(OCC=C(C)C)cc2)C1=O` (stereo partly shown) [KC-2, Ethyl 2-(3-(3-isobutyl-4-(4-(3-methylbut-2-enyloxy)phenyl)-2,5-dioxo-2,5-dihydro-1H-pyrrol-1-yl)-2-oxo-3-phenylpropanamido)propanoate], on HCV NS3/4A protease (setting [2]), the pIC50 was less than 4.00.

Consider `CC(C)=CCOc1ccc(C2=C(CC(C)C)C(=O)N(C(C(=O)C(=O)NC(C)C(=O)OC(C)(C)C)c3ccccc3)C2=O)cc1` (stereo not shown) [KC-4-2], for which, at HCV NS3/4A protease (setting [2]), the pIC50 was 4.74.

Regarding `CC(C)CC1C(=O)N(CC(C(=O)C(=O)NC(C)C(=O)O)c2ccccc2)C(=O)C1c1ccc(O)cc1` (stereo not shown) [KC-4], the pIC50 on HCV NS3/4A protease (setting [2]) is 4.84.

With `CC(C)=CCOc1ccc(C2=C(CC(C)C)C(=O)N(C(C(=O)C(=O)NC(Cc3ccccc3)C(=O)OC(C)(C)C)c3ccccc3)C2=O)cc1` (stereo not shown) [KC-5-2], the negative-log IC50 (pIC50) at HCV NS3/4A protease (setting [2]) was 4.29.

Regarding `CC(C)CC1C(=O)N(CC(C(=O)C(=O)NC(Cc2ccccc2)C(=O)O)c2ccccc2)C(=O)C1c1ccc(O)cc1` (stereo not shown) [KC-5], the pIC50 on HCV NS3/4A protease (setting [2]) is 5.05.

Turning to `CC(C)CC1C(=O)C(C(c2ccccc2)C(O)C(=O)O)C(=O)C1c1ccc(O)cc1` (stereo not shown) [KC-t], the pIC50 on HCV NS3/4A protease (setting [2]) is 4.14.

With `CC(C)=CCOc1ccc(C2=C(CC(C)C)C(=O)N(C(C(=O)C(N)=O)c3ccccc3)C2=O)cc1` (stereo not shown) [KCnh-1], on HCV NS3/4A protease (setting [2]), the negative logarithm of the IC50 (pIC50) was 5.71.

In the case of `CC(C)CC1C(=O)N(C(C(=O)C(N)=O)c2ccccc2)C(=O)C1c1ccc(O)cc1` (stereo not shown) [KCnh-2], the pIC50 on HCV NS3/4A protease (setting [2]) was 5.85.
